Results: US5780489A, “Method for treating amyotrophic lateral sclerosis” (priority 1996, dated 1998)
“Also recorded” adds a separate entry of the source. Like-named read-outs stand apart in the source and are kept apart here.

What was measured:
[1] = tested on: rat cerebrospinal fluid (CSF); conditions: Shikama et al. 1995, cited from earlier work; for rate of uptake into rat cerebrospinal fluid: GSH versus GSH isopropyl ester
cells [2] = conditions: cited from earlier work
cells [3] = conditions: Puri and Meister, 1983; cited from earlier work
cellular ischemia = conditions: H Shikama et al., 1995; cited from earlier work
[4] = tested on: γ-glutamyl transpeptidase; conditions: proposed by Shikama et al.; cited from earlier work
[5] = OTZ pharmacokinetics (plasma elimination and oral absorption); type: in vivo, human
Procedure: The synthesis of glutathione, an endogenous antioxidant, is often limited by the supply of intracellular cysteine, one of the component amino acids of glutathione. […] Some of these patients continued taking OTZ capsules (up to 9 grams/day) for over two years.
Subjects with ALS were enrolled in a tolerability, pharmacokinetics and pharmacodynamics study of OTZ in ALS patients. In this study, glutathione and cysteine levels in whole blood and CSF and OTZ pharmacokinetics were determined in ten to twenty subjects with ALS. Blood was obtained for baseline glutathione and cysteine levels. A spinal catheter was inserted and baseline CSF samples collected for determination of glutathione and cysteine levels. OTZ (90 ml 5% OTZ injection=4500 mg OTZ) was administered by intravenous infusion through a peripheral vein over 60±10 minutes. At various time points after the start of the OTZ infusion, blood and CSF samples were drawn for determination of OTZ and glutathione levels. The following day, subjects started taking OTZ capsules (3000 mg t.i.d.) for 28 days. After 7 and 14 days of treatment with OTZ capsules, blood was drawn for analyses of safety parameters, glutathione, cysteine and OTZ levels. On the last day of the treatment period, blood and CSF samples were drawn for analysis of OTZ, glutathione, and cysteine levels. The study endpoints were tolerability, and pharmacokinetic and pharmacodynamic data. Safety was determined by clinical history and examination, quantitative neuromuscular examination and a panel of safety laboratory tests. Nine subjects completed the study and samples are analyzed. In addition, CSF was drawn from patients without severe neurological disorders and the GSH levels are analyzed and compared to the levels for ALS patients.

adverse experiences = type: in vivo, human; conditions: only minor
Description: The risk of any of these side effects occurring is small; however, should they occur, the dose of medication is reduced or discontinued entirely. However, OTZ is an experimental drug and unexpected side effects may occur.

patients with ALS = assay: progression of ALS, phase II trial of OTZ and Riluzole versus Riluzole alone; type: in vivo, human; conditions: 9 months, 3000 mg p.o. t.i.d.
Procedure: 5.3. OTZ in ALS Patients: Phase II Trial
A phase II, bi-center, double-blind randomized controlled comparison trial of the efficacy of OTZ and the anti-glutamate agent, Riluzole, versus Riluzole alone in slowing of disease progression in patients with ALS (50 at each center) is performed. Patients receive treatment for 9 months. Riluzole is approved for marketing by the FDA.
The OTZ and placebo capsules are identical in appearance. Riluzole is administered as tablets obtained from the manufacturer. Riluzole is administered at 50 mg bid to all subjects. The OTZ dose is the same as used in the Phase I study, 3000 mg p.o. t.i.d. However, the final determination of OTZ dose may be modified. Half the subjects receive active OTZ capsules and the other half receive identical appearing placebo capsules.
The primary outcome measure is change in motor and pulmonary function after 9 months of experimental therapy as tested with the Tufts Quantitative Neuromuscular Exam ([…]) and FVC. The secondary outcome measure is based upon ALS Functional Rating Scores.
Analysis is done on an intention to treat basis. The primary analysis tests the difference in average slopes of arm megascores between the OTZ and Riluzole combination and Riluzole alone groups using a two-way ANOVA with treatment and center in the model, with a two-sided alpha=0.05. […]

GSH levels in rat brains = conditions: cited from earlier work
[6] = tested on: GSH levels in some cell types; conditions: Williamson et al. 1981; cited from earlier work
[7] = tested on: intracellular glutathione levels; conditions: cited from earlier work
5-oxoprolinase = conditions: cited from earlier work
human cells = conditions: cited from earlier work
[8] = Meister et al., 1986; cited from earlier work
[9] = Meister et al., 1986; cited from earlier work; remark: listed apart in the source
[10] = esterase activity absent in human plasma; cited from earlier work
[11] = by an esterase; cited from earlier work
ALS patients [12] = conditions: cited from earlier work; for survival in ALS (in words): human, in vivo
[13] = tested on: chronic organotypic spinal cord cultures; conditions: in vitro, after SOD1 anti-sense oligonucleotides; cited from earlier work
[14] = B Olsson et al., 1988; cited from earlier work
[15] = tested on: transgenic mice which overexpress the mutant SOD1 protein; conditions: small, but statistically significant; cited from earlier work
ALS patients [16] = conditions: two controlled studies; cited from earlier work
[17] = tested on: glutamate release at pre-synaptic terminals; conditions: cited from earlier work
[18] = in vivo; cited from earlier work

Structure (SMILES): N[C@@H](CCC(=O)N[C@@H](CS)C(=O)NCC(=O)O)C(=O)O [GSH, L-γ-glutamyl-L-cysteinylglycine]
- rate of uptake into rat cerebrospinal fluid [1]: the same
- effect of administration on intracellular GSH levels (cells [2]; Meister, U.S. Pat. No. 4,879,370): has not led to increased intracellular GSH levels
- transport into cells (cells [2]): not transported efficiently into cells; also recorded: not efficiently transported into most animal cells
- protection of cells against toxic compounds (cells [3]): can protect some cells against toxic compounds

Structure (SMILES): CC(C)OC(=O)CNC(=O)[C@H](CS)NC(=O)CC[C@H](N)C(=O)O [GSH isopropyl ester, glutathione isopropyl ester]
- rate of uptake into rat cerebrospinal fluid [1]: the same
- total GSH (sum of GSH and GSH ester) in rat CSF [1]: only the ester increased the total GSH
- stability in CSF ([1]; versus GSH): more stable that GSH in the CSF
- protection against cellular ischemia (cellular ischemia): provide protection against cellular ischemia
- affinity for γ-glutamyl transpeptidase [4]: reduced affinity

Structure (SMILES): O=C1N[C@H](C(=O)O)CS1 [OTZ, L-2-oxothiazolidine-4-carboxylic acid]
- elimination from plasma ([5]; after oral or intravenous administration): rapidly eliminated from plasma
- absorption after oral administration ([5]; oral): readily absorbed after oral administration
- half-life ([5]; plasma, after oral or intravenous administration, read-out: T1/2 (elimination from plasma)): 1 to 2 h
- adverse experiences associated with OTZ (adverse experiences): stomach upset, dizziness, insomnia, nausea, restlessness and headache
- rate of progression of ALS (patients with ALS): slows the rate of progression of ALS
- GSH levels in rat brains (GSH levels in rat brains; Anderson and Meister 1989): no effect or only slightly increased GSH levels
- level of GSH in rat brains (GSH levels in rat brains; subcutaneous injections, Mesina et al. 1989): statistically significant increase in the level of GSH in rat brains
- increase of GSH levels in some cell types [6]: effective in increasing GSH levels in some cell types
- intracellular glutathione levels in animal models [7]: increases intracellular glutathione levels in animal models
- conversion to cysteine (enzyme required) (5-oxoprolinase): requires the enzyme 5-oxoprolinase
- metabolism by 5-oxo-L-prolinase (5-oxoprolinase; in vitro, in the presence of adenosine triphosphate): subjected to the action of 5-oxo-L-prolinase in the presence of adenosine triphosphate to produce S-carboxyl cysteine

Structure (SMILES): CCOC(=O)CNC(=O)[C@H](CS)NC(=O)CC[C@H](N)C(=O)O [GSH monoethylester]
- entry into human cells (human cells): able to enter human cells
- intracellular GSH levels in human cells (human cells): increase in GSH levels

Structure (SMILES): N[C@@H](CS)C(=O)O [L-cysteine]
- transport into cells (cells [2]): not transported efficiently into cells
- transport into cells (cells [2]; listed as cysteine): not efficiently transported into most animal cells
- oxidation at neutral pH [8]: oxidized spontaneously at neutral pH
- toxicity of high extracellular levels [9]: high extracellular levels of cysteine can be toxic

Structure (SMILES): CCOC(=O)CNC(=O)[C@H](CS)NC(=O)CC[C@H](N)C(=O)OCC [GSH diethylester]
- entry into human cells (human cells): even more efficiently transported into human cells than the monoester
- intracellular GSH levels in human cells (human cells): increase of intracellular GSH levels
- stability in human blood [10]: stable in human blood
- conversion to monoethyl (glycyl) ester in rodent blood plasma [11]: readily converted to monoethyl (glycyl) ester in rodent blood plasma

Structure (SMILES): CC(=O)N[C@@H](CS)C(=O)O [N-acetylcysteine (NAC), N-acetylcysteine]
- survival in ALS (in words) (ALS patients [12]): trend towards increasing survival in ALS patients
- reversal of death process in spinal cord cultures [13]: reversed
- bioavailability in human studies [14]: low bioavailability

Structure (SMILES): Nc1nc2ccc(OC(F)(F)F)cc2s1 [Riluzole]
- prolongation of survival of ALS patients (ALS patients [12]; G Bensimon et al., 1994): 12%
- survival in ALS (in words) (ALS patients [12]): extend survival in ALS; also recorded: improve survival in ALS; also recorded: small affect on survival
- prolongation of lifespan in patients with ALS (ALS patients [12]; two studies, statistically significant, but small, G Bensimon et al., 1994): 18%
- prolongation of survival in transgenic SOD1 mutant mice [15]: 11%
- improvement in strength (ALS patients [16]): without a concomitant improvement in strength
- release of glutamates at pre-synaptic terminals [17]: inhibits release of glutamates at pre-synaptic terminals
- known adverse experiences associated with Riluzole therapy [18]: asthenia, fatigue and asymptomatic elevation of liver function tests
